In the NIST ThermoML archive (doi:10.1021/acs.jced.8b00080):
± gives the expanded uncertainty stated by the source.

Experiment: activity coefficient (dimensionless); of the first substance listed, at infinite dilution; xn = mol fraction of the nth substance listed
Details: 101.33 kPa, Liquid, Chromatography, x1 = 0

SMILES | activity coefficient (303 K) | activity coefficient (313 K) | activity coefficient (323 K) | activity coefficient (333 K) | activity coefficient (343 K) | activity coefficient (353 K)
ClC(Cl)Cl [trichloromethane] + C[n+]1ccn(CCO)c1.O=S(=O)([O-])C(F)(F)C(F)(F)C(F)(F)C(F)(F)F | 2.27 ± 0.11 | 2.2 ± 0.11 | 2.11 ± 0.1 | 2.01 ± 0.1 | 1.91 ± 0.1 | 1.84 ± 0.1
Cc1cccc(C)c1 [1,3-dimethylbenzene] + C[n+]1ccn(CCO)c1.O=S(=O)([O-])C(F)(F)C(F)(F)C(F)(F)C(F)(F)F | 11.6 ± 0.42 | 10.8 ± 0.39 | 9.86 ± 0.35 | 8.71 ± 0.31 | 7.91 ± 0.28 | 7.2 ± 0.26
CO [methanol] + C[n+]1ccn(CCO)c1.O=S(=O)([O-])C(F)(F)C(F)(F)C(F)(F)C(F)(F)F | 1.1 ± 0.08 | 1.02 ± 0.08 | 0.93 ± 0.08 | 0.9 ± 0.08 | 0.87 ± 0.08 | 0.82 ± 0.08
C1CCOC1 [tetrahydrofuran] + C[n+]1ccn(CCO)c1.O=S(=O)([O-])C(F)(F)C(F)(F)C(F)(F)C(F)(F)F | 1.73 ± 0.1 | 1.7 ± 0.09 | 1.64 ± 0.09 | 1.59 ± 0.09 | 1.52 ± 0.09 | 1.48 ± 0.09
Cc1ccc(C)cc1 [1,4-dimethylbenzene] + C[n+]1ccn(CCO)c1.O=S(=O)([O-])C(F)(F)C(F)(F)C(F)(F)C(F)(F)F | 11.9 ± 0.43 | 11 ± 0.39 | 9.88 ± 0.35 | 8.78 ± 0.31 | 8 ± 0.28 | 7.59 ± 0.27
Cc1ccccc1C [1,2-dimethylbenzene] + C[n+]1ccn(CCO)c1.O=S(=O)([O-])C(F)(F)C(F)(F)C(F)(F)C(F)(F)F | 10.4 ± 0.37 | 9.7 ± 0.35 | 8.9 ± 0.32 | 7.81 ± 0.28 | 7.04 ± 0.25 | 6.52 ± 0.23
Cc1ccccc1 [toluene] + C[n+]1ccn(CCO)c1.O=S(=O)([O-])C(F)(F)C(F)(F)C(F)(F)C(F)(F)F | 7.4 ± 0.26 | 6.83 ± 0.24 | 6.21 ± 0.22 | 5.44 ± 0.19 | 4.94 ± 0.18 | 4.44 ± 0.16
C1CCCCC1 [cyclohexane] + C[n+]1ccn(CCO)c1.O=S(=O)([O-])C(F)(F)C(F)(F)C(F)(F)C(F)(F)F | 24.3 ± 0.88 | 19.1 ± 0.69 | 15.2 ± 0.55 | 11.7 ± 0.42 | 9.39 ± 0.34 | 7.54 ± 0.27
C#CCCCCC [1-heptyne] + C[n+]1ccn(CCO)c1.O=S(=O)([O-])C(F)(F)C(F)(F)C(F)(F)C(F)(F)F | 16.7 ± 0.6 | 15.1 ± 0.54 | 13.4 ± 0.48 | 11.9 ± 0.43 | 10.4 ± 0.37 | 9.29 ± 0.33
C#CCCCC [1-hexyne] + C[n+]1ccn(CCO)c1.O=S(=O)([O-])C(F)(F)C(F)(F)C(F)(F)C(F)(F)F | 10.4 ± 0.37 | 9.24 ± 0.33 | 7.92 ± 0.28 | 6.97 ± 0.25 | 6.03 ± 0.21 | 5.18 ± 0.19
C=CCCCC [hex-1-ene] + C[n+]1ccn(CCO)c1.O=S(=O)([O-])C(F)(F)C(F)(F)C(F)(F)C(F)(F)F | 15.7 ± 0.57 | 12.4 ± 0.45 | 9.71 ± 0.35 | 7.62 ± 0.27 | 6.07 ± 0.22 | 4.97 ± 0.18
CCCCC [pentane] + C[n+]1ccn(CCO)c1.O=S(=O)([O-])C(F)(F)C(F)(F)C(F)(F)C(F)(F)F | 9.38 ± 0.34 | 6.94 ± 0.25 | 5.46 ± 0.2 | 4.34 ± 0.16 | 3.39 ± 0.14 | 2.75 ± 0.12
CC#N [acetonitrile] + C[n+]1ccn(CCO)c1.O=S(=O)([O-])C(F)(F)C(F)(F)C(F)(F)C(F)(F)F | 0.99 ± 0.08 | 0.97 ± 0.08 | 0.93 ± 0.08 | 0.9 ± 0.08 | 0.87 ± 0.08 | 0.84 ± 0.08
CCCCCCCCC [nonane] + C[n+]1ccn(CCO)c1.O=S(=O)([O-])C(F)(F)C(F)(F)C(F)(F)C(F)(F)F | 157 ± 5.7 | 132 ± 4.8 | 105 ± 3.8 | 88 ± 3.2 | 71 ± 2.6 | 54.1 ± 2
c1ccccc1 [benzene] + C[n+]1ccn(CCO)c1.O=S(=O)([O-])C(F)(F)C(F)(F)C(F)(F)C(F)(F)F | 4.71 ± 0.17 | 4.27 ± 0.16 | 3.85 ± 0.15 | 3.34 ± 0.13 | 2.95 ± 0.12 | 2.65 ± 0.12
CC(C)=O [acetone] + C[n+]1ccn(CCO)c1.O=S(=O)([O-])C(F)(F)C(F)(F)C(F)(F)C(F)(F)F | 0.93 ± 0.08 | 0.91 ± 0.08 | 0.9 ± 0.08 | 0.88 ± 0.08 | 0.85 ± 0.08 | 0.83 ± 0.08
CC1CCCCC1 [methylcyclohexane] + C[n+]1ccn(CCO)c1.O=S(=O)([O-])C(F)(F)C(F)(F)C(F)(F)C(F)(F)F | 38.1 ± 1.4 | 29.7 ± 1.1 | 24.3 ± 0.88 | 19 ± 0.69 | 15.2 ± 0.55 | 12.3 ± 0.44
CCCCCCC [heptane] + C[n+]1ccn(CCO)c1.O=S(=O)([O-])C(F)(F)C(F)(F)C(F)(F)C(F)(F)F | 53 ± 1.9 | 39.7 ± 1.4 | 30.9 ± 1.1 | 23.6 ± 0.86 | 18 ± 0.65 | 13.9 ± 0.5
CCO [ethanol] + C[n+]1ccn(CCO)c1.O=S(=O)([O-])C(F)(F)C(F)(F)C(F)(F)C(F)(F)F | 1.56 ± 0.09 | 1.48 ± 0.09 | 1.38 ± 0.09 | 1.31 ± 0.09 | 1.22 ± 0.08 | 1.14 ± 0.08
CCCCCCCC [octane] + C[n+]1ccn(CCO)c1.O=S(=O)([O-])C(F)(F)C(F)(F)C(F)(F)C(F)(F)F | 99 ± 3.6 | 75.8 ± 2.8 | 61.2 ± 2.2 | 47.3 ± 1.7 | 37.1 ± 1.4 | 28.4 ± 1
C=CCCCCCCCC [1-decene] + C[n+]1ccn(CCO)c1.O=S(=O)([O-])C(F)(F)C(F)(F)C(F)(F)C(F)(F)F | 122 ± 4.5 | 107 ± 3.9 | 91.5 ± 3.3 | 79.6 ± 2.9 | 67.7 ± 2.5 | 59.2 ± 2.1
ClCCl [dichloromethane] + C[n+]1ccn(CCO)c1.O=S(=O)([O-])C(F)(F)C(F)(F)C(F)(F)C(F)(F)F | 2.14 ± 0.11 | 1.99 ± 0.1 | 1.85 ± 0.1 | 1.69 ± 0.09 | 1.54 ± 0.09 | 1.45 ± 0.09
CCCCCC [hexane] + C[n+]1ccn(CCO)c1.O=S(=O)([O-])C(F)(F)C(F)(F)C(F)(F)C(F)(F)F | 23.5 ± 0.85 | 17.7 ± 0.64 | 13.7 ± 0.49 | 10.6 ± 0.38 | 8 ± 0.29 | 6.31 ± 0.23
C1COCCO1 [1,4-dioxane] + C[n+]1ccn(CCO)c1.O=S(=O)([O-])C(F)(F)C(F)(F)C(F)(F)C(F)(F)F | 1.67 ± 0.09 | 1.64 ± 0.09 | 1.61 ± 0.09 | 1.59 ± 0.09 | 1.56 ± 0.09 | 1.53 ± 0.09
C#CCCCCCC [1-octyne] + C[n+]1ccn(CCO)c1.O=S(=O)([O-])C(F)(F)C(F)(F)C(F)(F)C(F)(F)F | 26.2 ± 0.94 | 23.8 ± 0.85 | 21.2 ± 0.76 | 19.1 ± 0.69 | 16.9 ± 0.61 | 14.8 ± 0.53
CCCO [propan-1-ol] + C[n+]1ccn(CCO)c1.O=S(=O)([O-])C(F)(F)C(F)(F)C(F)(F)C(F)(F)F | 2.22 ± 0.11 | 2.07 ± 0.1 | 1.91 ± 0.1 | 1.81 ± 0.1 | 1.66 ± 0.09 | 1.53 ± 0.09
C#CCCC [1-pentyne] + C[n+]1ccn(CCO)c1.O=S(=O)([O-])C(F)(F)C(F)(F)C(F)(F)C(F)(F)F | 5.99 ± 0.21 | 5.07 ± 0.18 | 4.21 ± 0.16 | 3.68 ± 0.14 | 3.11 ± 0.13 | 2.59 ± 0.12
CCc1ccccc1 [ethylbenzene] + C[n+]1ccn(CCO)c1.O=S(=O)([O-])C(F)(F)C(F)(F)C(F)(F)C(F)(F)F | 12.1 ± 0.43 | 11 ± 0.39 | 10.1 ± 0.36 | 8.82 ± 0.31 | 7.93 ± 0.28 | 7.09 ± 0.25
C=CCCCCCC [oct-1-ene] + C[n+]1ccn(CCO)c1.O=S(=O)([O-])C(F)(F)C(F)(F)C(F)(F)C(F)(F)F | 53.9 ± 2 | 45.2 ± 1.6 | 36.6 ± 1.3 | 29.5 ± 1.1 | 24.3 ± 0.88 | 19.9 ± 0.72
